Assay results: US20060189602A1, “Pyridazinone compounds” (Anadys Pharmaceuticals, Inc., priority 2004, published 2006)
pIC50: −log10 of the molar value.

Molecular target: HCV NS5B polymerase (Hepatitis C virus genotype 1b, UniProt P26663)
Test: NS5B Polymerase Inhibition Assay
Assay type: biochemical
Details: 50 nM enzyme, [α-33P]GTP, oligo (rG13)/poly rC, 75 min at 28° C.
Procedure: NS5B Polymerase Inhibition Assay
Compounds were tested for HCV polymerase inhibition. Assays were performed in a 96-well streptavidin-coated FlashPlate using 50 nM enzyme, 0.5 μCi of [α-^33P]GTP, 0.63 μM GTP, and 250 nM 5′biotinylated oligo (rG13)/poly rC in 20 mM Tris-HCl, pH 7.5, 5 mM MgCl2, 20 mM NaCl, 5 mM dithiothreitol, and 0.1 g/L BSA. The reaction was stopped by aspiration after 75 min at 28° C. and the plate was washed several times. After washing, incorporated radioactivity was counted using a Microbeta scintillation counter.

Sequence of HCV NS5B polymerase (P26663 2420-3010): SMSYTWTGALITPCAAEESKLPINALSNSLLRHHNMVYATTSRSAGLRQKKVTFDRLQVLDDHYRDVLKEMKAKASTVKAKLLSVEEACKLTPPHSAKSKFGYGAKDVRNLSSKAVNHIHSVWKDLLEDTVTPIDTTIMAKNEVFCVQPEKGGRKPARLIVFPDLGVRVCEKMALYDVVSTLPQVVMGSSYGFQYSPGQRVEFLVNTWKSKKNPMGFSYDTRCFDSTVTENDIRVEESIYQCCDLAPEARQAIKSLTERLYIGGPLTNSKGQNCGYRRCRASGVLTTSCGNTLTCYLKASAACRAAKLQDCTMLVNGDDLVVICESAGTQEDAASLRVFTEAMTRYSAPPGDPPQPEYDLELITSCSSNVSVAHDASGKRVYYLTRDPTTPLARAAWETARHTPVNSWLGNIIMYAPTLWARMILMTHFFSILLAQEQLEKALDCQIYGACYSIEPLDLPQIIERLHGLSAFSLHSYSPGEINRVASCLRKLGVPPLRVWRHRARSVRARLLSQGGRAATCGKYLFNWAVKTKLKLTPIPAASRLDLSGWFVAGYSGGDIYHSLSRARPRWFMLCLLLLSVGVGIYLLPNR

| SMILES | pIC50 |
| --- | --- |
| COc1ccc2c(c1)S(=O)(=O)NC(c1c(O)c(-c3ccc(C)s3)nn(CCC(C)C)c1=O)=N2 [Compound 9, 5-Hydroxy-4-(7-methoxy-1,1-dioxo-1,2-dihydro-1λ^6-ben-zo[1,2,4]thiadiazin-3-yl)-2-(3-methyl-butyl)-6-(5-methyl-thio-phen-2-yl)-2H-pyridazin-3-one] | 4.30 to 5.00 |
| CCCCn1nc(-c2cccs2)c(O)c(C2=Nc3ccc(OC)cc3S(=O)(=O)N2)c1=O [Compound 17, 2-Butyl-5-hydroxy-4-(7-methoxy-1,1-dioxo-1,2-dihydro-1λ^6-ben-zo[1,2,4]thiadiazin-3-yl)-6-thiophen-2-yl-2H-pyridazin-3-one] | > 5.00 |
| COc1ccc2c(c1)S(=O)(=O)NC(c1c(O)c(-c3cccs3)nn(CCC3CC3)c1=O)=N2 [Compound 3, 2-(2-Cyclopropyl-ethyl)-5-hydroxy-4-(7-methoxy-1,1-dioxo-1,2-di-hydro-1λ^6-benzo[1,2,4]thiadiazin-3-yl)-6-thiophen-2-yl-2H-py-ridazin-3-one] | > 5.00 |
| COc1ccc2c(c1)S(=O)(=O)NC(c1c(O)c(-c3sccc3C)nn(CCC(C)C)c1=O)=N2 [Compound 61, 5-Hydroxy-4-(7-methoxy-1,1-dioxo-1,2-dihydro-1λ^6-ben-zo[1,2,4]thiadiazin-3-yl)-2-(3-methyl-butyl)-6-(3-methyl-thio-phen-2-yl)-2H-pyridazin-3-one] | > 5.00 |
| CCCCn1nc(CCC(C)C)c(O)c(C2=Nc3ccc(OCC(N)=O)cc3S(=O)(=O)N2)c1=O [Compound 39, 2-{3-[2-Butyl-5-hydroxy-6-(3-methyl-butyl)-3-oxo-2,3-di-hydro-pyridazin-4-yl]-1,1-dioxo-1,2-dihydro-1λ^6-ben-zo[1,2,4]thiadiazin-7-yloxy}-acetamide] | > 5.00 |
| Cc1ccsc1-c1nn(CCC(C)C)c(=O)c(C2=NS(=O)(=O)c3cc(OCC(N)=O)ccc3N2)c1O [Compound 65, 2-{3-[5-Hydroxy-2-(3-methyl-butyl)-6-(3-methyl-thiophen-2-yl)-3-ox-o-2,3-dihydro-pyridazin-4-yl]-1,1-dioxo-1,2-dihydro-1λ^6-ben-zo[1,2,4]thiadiazin-7-yloxy}-acetamide] | > 5.00 |
| CCCc1nn(CCC(C)C)c(=O)c(C2=Nc3ccc(OC)cc3S(=O)(=O)N2)c1O [Compound 42, 5-Hydroxy-4-(7-methoxy-1,1-dioxo-1,2-dihydro-1λ^6-ben-zo[1,2,4]thiadiazin-3-yl)-2-(3-methyl-butyl)-6-propyl-2H-py-ridazin-3-one] | > 5.00 |
| Cc1ccc(-c2nn(CCC(C)(C)C)c(=O)c(C3=NS(=O)(=O)c4cc(OCC(N)=O)ccc4N3)c2O)s1 [Compound 64, 2-{3-[2-(3,3-Dimethyl-butyl)-5-hydroxy-6-(5-methyl-thiophen-2-yl)-3-ox-o-2,3-dihydro-pyridazin-4-yl]-1,1-dioxo-1,2-di-hydro-1λ^6-benzo[1,2,4]thiadiazin-7-yloxy}-acetamide] | > 5.00 |
| CCCCc1nn(CCC(C)C)c(=O)c(C2=Nc3ccc(OC)cc3S(=O)(=O)N2)c1O [Compound 35, 6-Butyl-5-hydroxy-4-(7-methoxy-1,1-dioxo-1,2-dihdyro-1λ^6-ben-zo[1,2,4]thiadiazin-3-yl)-2-(3-methyl-butyl)-2H-pyridazin-3-one] | > 5.00 |
| CCCc1nn(CCC(C)C)c(=O)c(C2=NS(=O)(=O)c3cc(OCC(N)=O)ccc3N2)c1O [Compound 49, 2-{3-[5-Hydroxy-2-(3-methyl-butyl)-3-oxo-6-propyl-2,3-di-hydro-pyridazin-4-yl]-1,1-dioxo-1,2-dihydro-1λ^6-ben-zo[1,2,4]thiadiazin-7-yloxy}-acetamide] | > 5.00 |
| COc1ccc2c(c1)S(=O)(=O)NC(c1c(O)c(-c3cccn3C)nn(CCC(C)C)c1=O)=N2 [Compound 28, 5-Hydroxy-4-(7-methoxy-1,1-dioxo-1,2-dihydro-1λ^6-ben-zo[1,2,4]thiadiazin-3-yl)-2-(3-methyl-butyl)-6-(1-methyl-1H-pyr-rol-2-yl)-2H-pyridazin-3-one] | 4.30 to 5.00 |
| CC(C)c1nn(Cc2ccccc2)c(=O)c(C2=Nc3ccccc3S(=O)(=O)N2)c1O [Compound 41, 2-Benzyl-4-(1,1-dioxo-1,2-dihydro-1λ^6-ben-zo[1,2,4]thiadiazin-3-yl)-5-hydroxy-6-isopropyl-2H-py-ridazin-3-one] | 4.30 to 5.00 |
| CC(C)CCn1nc(C(C)C)c(O)c(C2=Nc3ccc(OCC(N)=O)cc3S(=O)(=O)N2)c1=O [Compound 33, 2-{3-[5-Hydroxy-6-isopropyl-2-(3-methyl-butyl)-3-oxo-2,3-di-hydro-pyridazin-4-yl]-1,1-dioxo-1,2-dihydro-1λ^6-ben-zo[1,2,4]thiadiazin-7-yloxy}-acetamide] | > 5.00 |
| CCCCc1nn(CCCC)c(=O)c(C2=Nc3ccc(OCC(N)=O)cc3S(=O)(=O)N2)c1O [Compound 47, 2-[3-(2,6-Dibutyl-5-hydroxy-3-oxo-2,3-dihydro-pyridazin-4-yl)-1,1-di-oxo-1,2-dihydro-1λ^6-benzo[1,2,4]thiadiazin-7-yl-oxy]-acetamide] | > 5.00 |
| O=c1c(C2=Nc3ccc(O)cc3S(=O)(=O)N2)c(O)c(-c2cccs2)nn1CCC1CC1 [Compound 7, 2-(2-Cyclopropyl-ethyl)-5-hydroxy-4-(7-hydroxy-1,1-dioxo-1,2-di-hydro-1λ^6-benzo[1,2,4]thiadiazin-3-yl)-6-thiophen-2-yl-2H-py-ridazin-3-one] | > 5.00 |
| CC(C)CCn1nc(-c2cccs2)c(O)c(C2=NS(=O)(=O)c3sc(Cl)cc3N2)c1=O [Compound 50, 4-(2-Chloro-7,7-dioxo-4,7-dihydro-1,7λ^6-dithia-4,6-diaza-inden-5-yl)-5-hydroxy-2-(3-methyl-butyl)-6-thiophen-2-yl-2H-py-ridazin-3-one] | 4.30 to 5.00 |
| CC(C)(C)CCn1nc(C(C)(C)C)c(O)c(C2=Nc3ccc(O)cc3S(=O)(=O)N2)c1=O [Compound 67, 6-tert-Butyl-2-(3,3-dimethyl-butyl)-5-hydroxy-4-(7-hydroxy-1,1-di-oxo-1,2-dihydro-1λ^6-benzo[1,2,4]thiadiazin-3-yl)-2H-py-ridazin-3-one] | > 5.00 |
| COc1ccc2c(c1)S(=O)(=O)NC(c1c(O)c(-c3cccs3)nn(CCC(C)(C)C)c1=O)=N2 [Compound 56, 2-(3,3-Dimethyl-butyl)-5-hydroxy-4-(7-methoxy-1,1-dioxo-1,2-di-hydro-1λ^6-benzo[1,2,4]thiadiazin-3-yl)-6-thiophen-2-yl-2H-py-ridazin-3-one] | > 5.00 |
| CCCCn1nc(CCC(C)C)c(O)c(C2=Nc3ccc(OC)cc3S(=O)(=O)N2)c1=O [Compound 34, 2-Butyl-5-hydroxy-4-(7-methoxy-1,1-dioxo-1,2-dihydro-1λ^6-ben-zo[1,2,4]thiadiazin-3-yl)-6-(3-methyl-butyl)-2H-pyridazin-3-one] | > 5.00 |
| CCCCc1nn(CCCC)c(=O)c(C2=Nc3ccc(OC)cc3S(=O)(=O)N2)c1O [Compound 40, 2,6-Dibutyl-5-hydroxy-4-(7-methoxy-1,1-dioxo-1,2-dihydro-1λ^6-ben-zo[1,2,4]thiadiazin-3-yl)-2H-pyridazin-3-one] | 4.30 to 5.00 |
| CCCCn1nc(C(C)C)c(O)c(C2=Nc3ccc(OC)cc3S(=O)(=O)N2)c1=O [Compound 10, 2-Butyl-5-hydroxy-6-isopropyl-4-(7-methoxy-1,1-dioxo-1,2-di-hydro-1λ^6-benzo[1,2,4]thiadiazin-3-yl)-2H-pyridazin-3-one] | 4.30 to 5.00 |
| CC(C)CCn1nc(C(C)C)c(O)c(C2=Nc3ccccc3S(=O)(=O)N2)c1=O [Compound 27, 4-(1,1-Dioxo-1,2-dihydro-1λ^6-benzo[1,2,4]thiadiazin-3-yl)-5-hy-droxy-6-isopropyl-2-(3-methyl-butyl)-2H-pyridazin-3-one] | 4.30 to 5.00 |
| CCCCn1nc(-c2ccccc2)c(O)c(C2=Nc3ccc(OC)cc3S(=O)(=O)N2)c1=O [Compound 15, 2-Butyl-5-hydroxy-4-(7-methoxy-1,1-dioxo-1,2-dihydro-1λ^6-ben-zo[1,2,4]thiadiazin-3-yl)-6-phenyl-2H-pyridazin-3-one] | 4.30 to 5.00 |
| CC(C)c1nn(CC2CCC2)c(=O)c(C2=Nc3ccccc3S(=O)(=O)N2)c1O [Compound 63, 2-Cyclobutylmethyl-4-(1,1-dioxo-1,2-dihydro-1λ^6-ben-zo[1,2,4]thiadiazin-3-yl)-5-hydroxy-6-isopropyl-2H-py-ridazin-3-one] | 4.30 to 5.00 |
| CC(C)c1nn(CCC2CC2)c(=O)c(C2=Nc3ccccc3S(=O)(=O)N2)c1O [Compound 57, 2-(2-Cyclopropyl-ethyl)-4-(1,1-dioxo-1,2-dihydro-1λ^6-ben-zo[1,2,4]thiadiazin-3-yl)-5-hydroxy-6-isopropyl-2H-py-ridazin-3-one] | > 5.00 |
| CC(C)CCc1nn(CCC(C)C)c(=O)c(C2=NS(=O)(=O)c3cc(OCC(N)=O)ccc3N2)c1O [Compound 51, 2-{3-[5-Hydroxy-2,6-bis-(3-methyl-butyl)-3-oxo-2,3-dihydro-py-ridazin-4-yl]-1,1-dioxo-1,2-dihydro-1λ^6-ben-zo[1,2,4]thiadiazin-7-yloxy}-acetamide] | > 5.00 |
| CC(C)CCn1nc(-c2cccs2)c(O)c(C2=Nc3ccc(OCC(=O)N4CCC(N)C4)cc3S(=O)(=O)N2)c1=O (stereo not shown) [Compound 21, 4-{7-[2-(3-Amino-pyrrolidin-1-yl)-2-oxo-ethoxy]-1,1-dioxo-1,2-di-hydro-1λ^6-benzo[1,2,4]thiadiazin-3-yl}-5-hydroxy-2-(3-methyl-butyl)-6-thiophen-2-yl-2H-pyridazin-3-one] | > 5.00 |
| COc1ccc2c(c1)S(=O)(=O)NC(c1c(O)c(-c3ccco3)nn(CCC(C)C)c1=O)=N2 [Compound 32, 6-Furan-2-yl-5-hydroxy-4-(7-methoxy-1,1-dioxo-1,2-dihydro-1λ^6-ben-zo[1,2,4]thiadiazin-3-yl)-2-(3-methyl-butyl)-2H-py-ridazin-3-one] | > 5.00 |
